Experimental data taken from US20020151581A1, “Glucose and lipid lowering compounds” (priority 1998, published 2002).
Where two headings read alike, the source gives them in different places. Marks after values point to notes of the source that are not given here.

Experiments:
rabbits = settings: cited from earlier work
KK/Ay mice = test: Effects in fasted KK/Ay mice (plasma lipids and glucose); format: in vivo; settings: daily intraperitoneal for 2 weeks
Protocol: (§1) Male, C57/B16J lean mice were purchased from Jackson Laboratories, Bar Harbor, Me. Animals were housed and maintained in accordance with NIH guidelines and had free access to water and food ad libitum. Test compounds of the present invention were suspended in 0.25% methylcellulose (w/v in distilled water) and stored at −20° C. in single use aliquots. Animals received a daily dose via the intraperitoneal route of administration for 2 weeks. After the last dose, animals were fasted overnight. On the following morning, a 250 μl blood sample was drawn via the retro-orbital sinus into a tube containing an EDTA-saline solution and centrifuged at 1,200×g for 15 min. The plasma fraction was analyzed for non-esterified free fatty acid content (NEFA) using the NEFA C diagnostic kit (WAKO Chemicals USA, Richmond, Va.), and glycerol with the triglyceride GPO-Trinder diagnostic kit (Sigma) modified for use on a BM Hitachi 911 clinical chemistry analyzer. P-values from a student's t-test were calculated using the Prizm software data analysis program (Graphpad, Sorrento Calif.).
Male, KK/Ay mice were purchased from Clea Japan USA, Pennington, N.J. At 4 months of age, animals received daily intraperitoneal administration of 2α-benzoyloxy-5,7,8αH-eudesma-4(15), 11(13)-dien-8,12-olide for 2 weeks. As described in Example 10, fasting plasma NEFA values were obtained. In addition, cholesterol and triglycerides were measured using BM reagent assay kits on a BM Hitachi 911 clinical chemistry analyzer. […] Plasma glucose levels were measured using a Boehringer Mannheim reagent assay kits on a Boehringer Mannheim Hitachi 911 clinical chemistry w analyzer.

Candida rugosa lipase = test: Inhibition of Candida rugosa lipase toward emulsified triolein substrate PC/PI; format: biochemical
Protocol: Recombinant hormone-sensitive lipase protein isolated from a bacterial expression vector was pre-incubated with a compound of the invention (e.g., 100 μM) prior to the addition of substrate, emulsified triolein phosphatidylcholine/phosphatidylinositol (PC/PI), to initiate the reaction. At various time points, aliquots of the reaction were taken, and the level of glycerol used as an index of enzyme activity. Pharmacological specificity is determined by incubating test compound with other mammalian and non-mammalian lipase enzyme systems to assess inhibition of activity. The assay was conducted using triolein concentrations from 42 μM to 835 μM.

C57/B16J lean mice = test: Circulating free fatty acid levels in overnight-fasted normal mice; format: in vivo; settings: 50 mg/kg daily intraperitoneal for 2 weeks
Protocol: as §1

Question: Which “effect on blood glucose” value (rabbits; moderate dose) does the source give for C=C1C(=O)O[C@@H]2C[C@@]3(C)CCC[C@H](C)C3=C[C@H]12 [alantolactone, 4,7,8αH-eudesma-5(6), 11(13)-dien-8,12-olide] here?
Answer: induce hypoglycemia

Question: What about the “effect on hyperglycemia induced by food” value (rabbits; rabbit, in vivo) of the same compound?
Answer: inhibit hyperglycemia induced by food

Question: What about the “effect on blood glucose” value (rabbits; rabbits, high dose) of the same compound?
Answer: induce hyperglycemia

Question: What does the source list for C=C1C(=O)O[C@@H]2C[C@@]3(C)C[C@@H](OC(=O)c4ccccc4)CC(=C)[C@@H]3C[C@H]12 [2α-benzoyloxy-5,7,8αH-eudesma-4(15),11(13)-dien-8,12-olide]?
Answer: fasting plasma NEFA (KK/Ay mice): significant reductions; plasma cholesterol (KK/Ay mice): significant reductions; plasma glycerol (KK/Ay mice): significant reductions; plasma triglycerides (KK/Ay mice): significant reductions; fasting plasma glucose level (KK/Ay mice; control mice 184±24 mg/dL, p <0.01): 90 ± 29 mg/dL; inhibition of Candida rugosa lipase (in words) (Candida rugosa lipase; emulsified triolein substrate PC/PI): did not inhibit enzyme activity; % Inhibition (Candida lipase) (Candida rugosa lipase; triolein substrate 42 μM): 40%; Candida Lipase + test compound (enzyme activity) (Candida rugosa lipase; triolein substrate 42 μM): 3.21; % Inhibition (Candida lipase) (Candida rugosa lipase; triolein substrate 83.5 μM): −12%; Candida Lipase + test compound (enzyme activity) (Candida rugosa lipase; triolein substrate 83.5 μM): 11.59; % Inhibition (Candida lipase) (Candida rugosa lipase; triolein substrate 167 μM): 6.3%; Candida Lipase + test compound (enzyme activity) (Candida rugosa lipase; triolein substrate 167 μM): 14.14; % Inhibition (Candida lipase) (Candida rugosa lipase; triolein substrate 334 μM): 3.6%; Candida Lipase + test compound (enzyme activity) (Candida rugosa lipase; triolein substrate 334 μM): 22.68; % Inhibition (Candida lipase) (Candida rugosa lipase; triolein substrate 501 μM): −1.7%; Candida Lipase + test compound (enzyme activity) (Candida rugosa lipase; triolein substrate 501 μM): 60.13; % Inhibition (Candida lipase) (Candida rugosa lipase; triolein substrate 668 μM): −1.1%; Candida Lipase + test compound (enzyme activity) (Candida rugosa lipase; triolein substrate 668 μM): 93.59; % Inhibition (Candida lipase) (Candida rugosa lipase; triolein substrate 835 μM): 1.0%; Candida Lipase + test compound (enzyme activity) (Candida rugosa lipase; triolein substrate 835 μM): 89.71; NEFA (fasting plasma) (C57/B16J lean mice; vehicle 1.108): 0.808 mM; Glycerol (fasting plasma) (C57/B16J lean mice; vehicle 36): 28^b mg/dl; % reduction NEFA (C57/B16J lean mice; vs vehicle): 27%
